Results published in patent US8252507B2, “Photoactive compound and photosensitive resin composition comprising the same” (LG Chem, Ltd., priority 2008, dated 2012).

Experiment: Solubility measurement in organic solvents
Format: physicochemical
Details: for Solubility in 3-MBA: amount (g) of compound completely dissolved in 3-methoxybutyl acetate; for Solubility in CH: amount (g) of compound completely dissolved in cyclohexanone; for Solubility in DPM: amount (g) of compound completely dissolved in dipropylene glycol methyl ether; for Solubility in EEP: amount (g) of compound completely dissolved in ethyl-3-ethoxy propionate; for Solubility in PGMEA: amount (g) of compound completely dissolved in propylene glycol methyl ether acetate
Procedure: The solubilities of Irgacure OXE-02 (Ciba Specialty Chemical) of Comparative Example 1, the compounds of Comparative Examples 2-3, and the compound of Example 1, which contains oxime ester moieties, were measured in various solvents, including propylene glycol methyl ether acetate (PGMEA), dipropylene glycol methyl ether (DPM), 3-methoxybutyl acetate (MBA), ethyl-3-ethoxy propionate (EEP) and cyclohexanone (CH). The solubility of each of the compounds was determined by measuring the amount (g) of the compound completely dissolved in the corresponding solvent.

| SMILES | Solubility in 3-MBA | Solubility in CH | Solubility in DPM | Solubility in EEP | Solubility in PGMEA |
| --- | --- | --- | --- | --- | --- |
| CCn1c2ccc(C(=O)c3ccc(OCC4COC(C)(C)O4)cc3)cc2c2cc(/C(CC(c3ccccc3)N(OC(C)=O)C(C)=O)=N/OC(C)=O)ccc21 (centres unmarked) [Example 1] | 13 g | 60 g | 7 g | 15 g | 20 g |
| CC(=O)O/N=C/c1ccc(-c2ccc(-c3nc(C(Cl)(Cl)Cl)nc(C(Cl)(Cl)Cl)n3)cc2)cc1 [Comparative Example 3, 2,4-trichloromethyl-(4′-formylbiphenylacetoxime)-6-triazine] | 5 g | 20 g | 2 g | 5 g | 7 g |
| CC(=O)O/N=C(\C)c1ccc(-c2nc(C(Cl)(Cl)Cl)nc(C(Cl)(Cl)Cl)n2)cc1 [Comparative Example 2, 2,4-trichloromethyl-(4′-acetylphenylacetoxime)-6-triazine] | 5 g | 25 g | 3 g | 6 g | 7 g |
| CCn1c2ccc(C(=O)c3ccccc3C)cc2c2cc(/C(C)=N/OC(C)=O)ccc21 [Comparative Example 1] | 10 g | 40 g | 5 g | 10 g | 12 g |
